Assay results published in PMC5171706 (2016).

Experiments:
[1] = test system: Pu24T (DNA, G4) TGAGGGTGGTGAGGGTGGGGAAGG; assay: 1H NMR titration; conditions: K+ (potassium phosphate); 298 K, 400 μM Piperine, H2O/D2O 9:1; Piperine resonances broaden
[2] = test system: Pu24T (DNA, G4) TGAGGGTGGTGAGGGTGGGGAAGG; assay: gel mobility shift; conditions: K+ (10 mM potassium phosphate, 50 mM KCl); 20 μM DNA, room temperature
[3] = test system: Pu24T (DNA, G4) TGAGGGTGGTGAGGGTGGGGAAGG; assay: UV melting at 295 nm; conditions: K+ (10 mM potassium phosphate, 50 mM KCl); pH 7.0; derived from two Tm (75.0 and 79.0 °C); D/N = 2.0; 78.0 °C at D/N 1.0
[4] = test system: Pu24T (DNA, G4) TGAGGGTGGTGAGGGTGGGGAAGG; assay: fluorescence titration of Piperine; conditions: K+ (10 mM potassium phosphate, 50 mM KCl); pH 7.0, 25 °C; two-site saturation fit, Kd1 and Kd2 only in Figure 2 and Table S1
[5] = test system: tel22 (DNA, G4) AGGGTTAGGGTTAGGGTTAGGG; assay: fluorescence titration of Piperine; conditions: K+ (10 mM potassium phosphate, 50 mM KCl); pH 7.0, 25 °C; two-site saturation fit, Kd1 and Kd2 only in Figure 2 and Table S1
[6] = test system: tel22 (DNA, G4) AGGGTTAGGGTTAGGGTTAGGG; assay: time-resolved fluorescence (lifetime); conditions: K+ (10 mM potassium phosphate, 50 mM KCl); 40.0 μM Piperine, D/N 1.0 and 2.0; lifetime increases

- binding [1]: yes
- binding [2]: yes
- ΔTm [3]: 4.0 °C
- Kd1 [4]: 2.5 nM
- Kd1 [5]: 87.5 nM
- binding [6]: yes
Compound: O=C(/C=C/C=C/c1ccc2c(c1)OCO2)N1CCCCC1
